The test concerns CCl4-induced liver fibrosis in C57BL/6 mice. The test can be described thus: Carbon tetrachloride mouse model of liver fibrosis. The test is classed as in vivo. Particulars: OCA 10 mg/kg per day; combination 50 and 10 mg/kg per day, oral, 6 weeks. Here is the method:
Carbon tetrachloride (CCl4)–induced liver fibrosis was conducted in C57BL/6J male mice starting at 7 weeks of age. Mice were injected intraperitoneally twice per week with 0.5–0.75 ml/kg CCL4 (289116; Sigma-Aldrich) and corn oil (0.05 ml total dose per mouse) for 6 weeks. CRV431, obeticholic acid (OCA, HY-12222; MedChemExpress), and vehicle were administered by daily oral gavage for the entire duration of the study. CRV431 and OCA were dissolved in a self-microemulsifying drug vehicle ([Trepanier et al., 2018]), and then diluted with PBS. CRV431 was administered at 50 mg/kg per day, and OCA was administered at 10 mg/kg per day.
Blood and livers were collected at the end of the NASH and CCl4 studies. In some studies, serum or plasma was isolated from freshly-collected blood, whereas in other studies blood was frozen for later analysis of CRV431 concentration. Livers were immersion-fixed in zinc-formalin and paraffin-embedded for histologic processing. Liver sections were stained with hematoxylin and eosin for assessment of inflammation, ballooning, and steatosis, and with sirius red for assessment of collagen I and III (fibrosis). Sirius red staining was quantified by blinded analysis in one section per liver using ImageJ software. […]

Results on one compound are retold here after paper PMC6815936, “A Pan-Cyclophilin Inhibitor, CRV431, Decreases Fibrosis and Tumor Development in Chronic Liver Disease Models” (The Journal of Pharmacology and Experimental Therapeutics, 2019).

As to `CC[C@H]1[C@@H](O)[C@@H]2[C@H](CC[C@]3(C)[C@@H]([C@H](C)CCC(=O)O)CC[C@@H]23)[C@@]2(C)CC[C@@H](O)C[C@@H]12` [OCA, obeticholic acid, reference compound], the “effect on liver fibrosis, sirius red staining (in words)” value is recorded as “no statistically significant effect”.
